US5292732A, “Pyrrolopyrazine derivatives” (Hoffmann-La Roche Inc., priority 1991, dated 1994)

Experiments:
[1] = biological target: T1, MAO (substrate 5-HT) (Rattus norvegicus, UniProt P21396); test: MAO inhibition in vitro, rat brain homogenate, substrate 14C-labelled serotonin (5-HT); type: biochemical; conditions: substrate 5-HT 2×10^-4 M, 37° C.
T1 construct: 20 μl of rat brain homogenate; from tissue; host or cells: rat brain homogenate
T1 sequence (P21396 1-526): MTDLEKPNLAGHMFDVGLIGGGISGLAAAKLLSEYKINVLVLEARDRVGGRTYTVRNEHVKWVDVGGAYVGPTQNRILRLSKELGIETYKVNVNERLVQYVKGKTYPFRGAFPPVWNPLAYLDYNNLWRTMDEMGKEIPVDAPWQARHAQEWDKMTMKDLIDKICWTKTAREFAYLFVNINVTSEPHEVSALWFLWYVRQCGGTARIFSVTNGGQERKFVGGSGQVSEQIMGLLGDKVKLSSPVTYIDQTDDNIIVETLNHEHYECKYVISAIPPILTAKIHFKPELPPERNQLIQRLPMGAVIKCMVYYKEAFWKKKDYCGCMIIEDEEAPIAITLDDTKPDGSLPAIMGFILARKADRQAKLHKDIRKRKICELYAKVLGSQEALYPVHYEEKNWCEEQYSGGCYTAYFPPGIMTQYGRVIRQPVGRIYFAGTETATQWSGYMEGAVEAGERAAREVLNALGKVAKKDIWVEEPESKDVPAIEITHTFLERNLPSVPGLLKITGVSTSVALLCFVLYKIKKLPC
Protocol: (§1) The MAO inhibiting activity of the compounds in accordance with the invention can be determined in vitro or ex vivo using standard methods. The preparations to be tested were investigated in the tests described hereinafter, which were based on the methods of R. J. Wurtmann and J. A. Axelrod [Biochem. Pharmac. 12, 1439-41 (1963).
(§2) Isolated rat brains are homogenized in 0.1 molar potassium phosphate buffer (pH 7.4) in the ratio 1:4 (weight/volume), the homogenate is diluted with the same buffer in the ratio 1:5 (volume/volume) and stored at -20° C. A mixture of the following composition was used for the incubation:
(§3) 100 μl of 1M phosphate buffer (pH 6.7);
(§4) 100 μl of solution of the substance to be tested in water or in 10% aqueous dimethyl sulphoxide;
(§5) 20 μl of rat brain homogenate; and as the substrate
(§6) 80 μl of ^14 C-labelled serotonin (5-HT) or ^14 C-labelled phenylethylamine (PEA), the radioactive concentration of which amounts to 100,000 decay per minute and which is used in a final concentration of 2×10^-4 M and, respectively, 2×10^-5 M.
(§7) A pre-incubation at 37° C. is effected for 30 minutes prior to the addition of the substrate. The incubation (in the presence of the substrate) is likewise effected at 37° C. and lasts for 10 minutes. The reaction is stopped by the addition of 200 μl of 2N hydrochloric acid.
(§8) In order to extract the desaminated product, the mixture is shaken for 10 minutes with 5 ml of diethyl ether or with 5 ml of n-heptane depending on whether 5-HT or PEA is used as the substrate, whereupon the mixture is centrifuged, the aqueous phase is frozen in a dry-ice bath, the organic phase is transferred into a counting glass and the radioactive concentration is determined in a β-counter.
(§9) The activity of the MAO in comparison to the control homogenates (without substance to be tested) is obtained on the basis of the β-values and the IC50 is defined as that concentration of a substance to be tested which reduces the activity of the MAO upon the substrate 5-HT or PEA by 50%.

[2] = biological target: T2, MAO (substrate PEA) (Rattus norvegicus, UniProt P19643); test: MAO inhibition in vitro, rat brain homogenate, substrate 14C-labelled phenylethylamine (PEA); type: biochemical; conditions: substrate PEA 2×10^-5 M, 37° C.
T2 construct: 20 μl of rat brain homogenate; from tissue; host or cells: rat brain homogenate
T2 sequence (P19643 1-520): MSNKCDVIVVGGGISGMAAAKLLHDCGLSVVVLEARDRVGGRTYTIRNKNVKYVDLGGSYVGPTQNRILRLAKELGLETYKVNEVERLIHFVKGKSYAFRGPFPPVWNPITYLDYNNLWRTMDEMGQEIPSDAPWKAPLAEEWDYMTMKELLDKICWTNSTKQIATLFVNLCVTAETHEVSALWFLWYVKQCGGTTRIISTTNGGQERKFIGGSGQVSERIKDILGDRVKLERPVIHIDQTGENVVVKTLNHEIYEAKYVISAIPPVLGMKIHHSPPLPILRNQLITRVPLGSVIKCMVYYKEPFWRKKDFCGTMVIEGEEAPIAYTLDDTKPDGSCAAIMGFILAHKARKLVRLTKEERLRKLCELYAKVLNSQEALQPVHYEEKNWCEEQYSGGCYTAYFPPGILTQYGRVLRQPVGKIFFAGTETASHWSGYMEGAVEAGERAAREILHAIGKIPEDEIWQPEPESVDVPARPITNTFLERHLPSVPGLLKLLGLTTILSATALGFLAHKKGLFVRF
Protocol: as §1, §2, §3, §4, §5, §6, §7, §8, §9

[3] = test system: MAO in the brain (substrate 5-HT); test: MAO inhibition ex vivo in brain of rats, substrate 5-HT; design: species or system male albino rats (Fu-SPF); conditions: rat, 100 μmol/kg orally, 2 hrs., given in percentage of the control values
Protocol: as §1
(§10) The compounds to be tested are investigated for the inhibition of MAO in the brain and liver of male albino rats (Fu-SPF, 100-140 g. The test compounds are administered orally as a solution or suspension in water in a dosage of 100 μmol per kilogram body weight. After 2 hrs. the animals are narcotized and decapitated. The brain (without cerebellum) and a portion of the liver are dissected out and submitted analogously to the above-described procedure for the determination of the MAO inhibiting activity, whereby the amount of enzyme used is 20 μl of a 1:20 homogenate in the case of brain and 20 μl of a 1:80 homogenate in the case of liver. The activity of the compounds is determined from a comparison of the β-values with the values for control animals treated with vehicle and is given in percentage of the control values.

[4] = test system: MAO in the brain (substrate PEA); test: MAO inhibition ex vivo in brain of rats, substrate PEA; design: species or system male albino rats (Fu-SPF); conditions: rat, 100 μmol/kg orally, 2 hrs., given in percentage of the control values
Protocol: as §1, §10

[5] = test system: MAO in the liver (substrate 5-HT); test: MAO inhibition ex vivo in liver of rats, substrate 5-HT; design: species or system male albino rats (Fu-SPF); conditions: rat, 100 μmol/kg orally, 2 hrs., given in percentage of the control values
Protocol: as §1, §10

[6] = test system: MAO in the liver (substrate PEA); test: MAO inhibition ex vivo in liver of rats, substrate PEA; design: species or system male albino rats (Fu-SPF); conditions: rat, 100 μmol/kg orally, 2 hrs., given in percentage of the control values
Protocol: as §1, §10

Structure (SMILES)	IC50 [1] [nM]	IC50 [2] [nM]	Remaining brain MAO activity, 5-HT (% of control) [3] [%]	Remaining brain MAO activity (PEA), % of control [4] [%]	MAO inhibition, Liver, 5HT [5] [%]	Remaining liver MAO activity (PEA), % of control [6] [%]
CC1=NCCn2c1ccc2-c1ccc(Cl)cc1 [6-(p-Chlorophenyl)-3,4-dihydro-1-methylpyrrolo[1,2-a]pyrazine]	350	10000	–	–	–	–
COc1ccc(-c2ccc3n2CCN=C3C)cc1 [3,4-Dihydro-6-(p-methoxyphenyl)-1-methylpyrrolo[1,2-a]pyrazine]	50	> 1000	–	–	–	–
CC1=NCCn2c1cc1c2-c2ccc(C3CCCCC3)cc2CC1 [3-cyclohexyl-5,6,10,11-tetrahydro-8-methylbenzo[g]pyrazino[1,2-a]indole]	2	160	–	–	–	–
CC1=NCCn2c1ccc2-c1ccc(O[C@@H]2C[C@H]3CC[C@@H]2C3)cc1 (relative stereo) [3,4-Dihydro-1-methyl-6-[p-(2-exonorbornyloxy)phenyl]pyrrolo[1,2-a]pyrazine]	20	3	45	11	51	10
CC1=NCCn2c1cc1c2-c2ccc(Cl)cc2CC1 [3-Chloro-5,6,10,11-tetrahydro-8-methylbenzo[g]pyrazino[1,2-a]indole]	10	> 1000	42	93	20	96
CC1=NCCn2c1cc1c2-c2ccc(OC(C)C)cc2CC1 [5,6,10,11-tetrahydro-3-isopropoxy-8-methylbenzo[g]pyrazino[1,2-a]indole]	0.4	14	8	60	10	75
COc1ccc2c(c1)CCc1cc3n(c1-2)CCN=C3C [5,6,10,11-Tetrahydro-3-methoxy-8-methyl-benzo[g]pyrazino[1,2-a]indole]	0.8	> 1000	28	86	5	87
CC1NCCn2c1cc1c2-c2ccccc2CC1 (stereo not shown) [5,6,8,9,10,11-Hexahydro-8-methylbenzo[g]pyrazino[1,2-a]indole]	90	> 1000	69	95	55	78
CC1=NCCn2cc(-c3ccccc3)cc21 [3,4-Dihydro-1-methyl-7-phenylpyrrolo[1,2-a]pyrazine]	90	> 1000	–	–	–	–
CC1=NCCn2c1cc1c2-c2ccccc2CC1 [5,6,10,11-Tetrahydro-8-methylbenzo[g]pyrazino[1,2-a]indole]	30	> 1000	48	87	47	81
CC1=NCCn2c1cc1c2-c2ccc(C)cc2CC1 [5,6,10,11-tetrahydro-3,8-dimethylbenzo[g]pyrazino[1,2-a]indole]	2	> 1000	43	82	17	96
CC1=NCCn2c1cc1c2-c2ccc(OC3CCCC3)cc2CC1 [3-cyclopentyloxy-5,6,10,11-tetrahydro-8-methylbenzo[g]pyrazino[1,2-a]indole]	1	7	13	45	8	50
CC1=NCCn2c1ccc2-c1ccccc1 [3,4-Dihydro-1-methyl-6-phenylpyrrolo[1,2-a]pyrazine]	300	> 1000	–	–	–	–
CC1=NCCn2c1ccc2-c1ccc(OC2CCCC2)cc1 [6-[p-(Cyclopentyloxy)phenyl]-3,4-dihydro-1-methylpyrrolo[1,2-a]pyrazine]	10	< 1	67	33	38	56
